The values that follow come from patent US20250075155A1, “Use of Vanillyl Ethers to Modify Flavor of Distilled Spirits” (Firmenich Incorporated, priority 2021, published 2025).

This test can be described thus: Sensory testing of unaged grain neutral spirit with vs without VEE (qualitative, taste testers). Here is the method: Sensory testing was performed comparing two samples of unaged grain neutral spirit (20% alcohol by volume), where one sample contained no vanillyl ether compounds and the other sample contained 4-(ethoxy methyl)-2-methoxyphenol (vanillyl ethyl ether or VEE) at a concentration of 5 ppm. The taste testers were asked to describe the differences between the two samples on a qualitative basis.
Sensory testing was performed comparing two samples of unaged grain neutral spirit (20% alcohol by volume), where one sample contained no vanillyl ether compounds and the other sample contained 4-(ethoxymethyl)-2-methoxyphenol (vanillyl ethyl ether or VEE) at a concentration of 25 ppm. The taste testers were asked to describe the differences between the two samples on a qualitative basis.

The mark [1] stands for this setting: VEE 5 ppm in unaged grain neutral spirit (20% ABV), relative to control sample.
The mark [2] stands for this setting: VEE 25 ppm in unaged grain neutral spirit (20% ABV), relative to control sample.

As to `CCOCc1ccc(O)c(OC)c1` [VEE, 4-(ethoxymethyl)-2-methoxyphenol], under setting [1], the Bitterness result is “All taste testers identified the test sample as having a less bitter”, the “Overall Taste” value is recorded as “All taste testers identified the test sample as having a better overall”, the Smoothness/Balance/Roundness entry is on record as “All taste testers identified the test sample as having greater” and the “Smoothness/Balance/Roundness: taste characteristic of an aged spirit” value was “test sample as having a taste more characteristic of an aged spirit”. Further, the Sweetness entry under setting [1] is on record as “sweeter taste”. Also, for the setting “VEE 5 ppm in unaged grain neutral spirit (20% alcohol by volume), relative to control sample without vanillyl ether”, the Smell entry is listed as “sample (containing VEE) as having a slight rum-like smell relative”. Moreover, under setting [2], the Bitterness entry is on record as “All taste testers identified the test sample as having a less bitter”, the “Overall Taste” value is reported as “All taste testers identified the test sample as having a better”, the Smoothness/Balance/Roundness result is on record as “All taste testers identified the test sample as having greater” and the Sweetness result was “sweeter taste”. Further, under setting [2], the Tingling/Heat entry was “increased tingling/hot perception very similar to ethanol profile” and the “Tingling/Heat: alcohol perception” value was “while significantly increasing the alcohol perception; taste like”.
